Here are results for two compounds from patent US10328085B2, “Cobalt porphyrins for the treatment of blood-related disorders” (UNIWERSYTET JAGIELLONSKI, priority 2014, dated 2019).

Data set [1] concerns cytokines and growth factors in plasma. As to the kind of experiment: cytokines and growth factors in plasma (Luminex). It counts as in vivo, mice. The procedure:
FIG. 5—concentration of cytokines and growth factors in plasma of C3H mice after administration of test compounds; (test ANOVA+Bonferroni test),
FIG. 6—concentration of cytokines and growth factors in plasma of C57BL6xFVB mice after administration of CoPP; (test ANOVA+Bonferroni test),
(§1) CoPP was administered to mice intraperitoneally at a dose of 10 mg/kg of body weight, three times at intervals of two days. Control mice received only the solvent (DMSO). In one experiment tin protoporphyrin (SnPP) was also used.
(§2) The day after the last administration of CoPP the mice were sacrificed and samples were collected for analysis. Complete blood counts were obtained using a hematology analyzer. In addition, the phenotype and the quantity of leukocytes in the peripheral blood, bone marrow and spleen was analyzed in more detail using a flow cytometer. Moreover, concentrations of 32 cytokines and growth factors in plasma were analyzed. The results of analyzes indicate that mice that were treated with CoPP had increased number of white blood cells (WBC) in the blood compared to mice that received only DMSO (3-fold in C3H mice, 2-fold in C57BL6xFVB mice). In both strains, there was a significant increase in the number of granulocytes (6.7-fold in C3H mice, 4-fold in C57BL6xFVB mice). There were no changes in the parameters such as hematocrit (HCT) and the number of erythrocytes (RBC) (FIG. 1, FIG. 2)
In order to investigate the mechanism responsible for the increase of the leukocytes (especially granulocytes) number, after administration of CoPP, the concentrations of cytokines and growth factors in the plasma were measured using the Luminex system. An increase in levels of granulocyte colony stimulating factor (G-CSF), chemokines MCP-1 (CCL2) and IP-10 (CXCL-10) and interleukin 6 was observed (FIG. 5, FIG. 6).

In data set [2] the test system is C3H and C57BL6xFVB mice. The data set is described as follows: flow cytometry of peripheral blood granulocytes in mice. In kind it is in vivo.
Text: FIG. 3—the percentage of granulocytes in peripheral blood in C3H mice after administration of the test compounds; (test ANOVA+Bonferroni test),
FIG. 4—the percentage of granulocytes in the peripheral blood of C57BL6xFVB mice after administration of CoPP; (test ANOVA+Bonferroni test),
CoPP is used in scientific experiments, both in vitro and in vivo as heme oxygenase-1 inducer. […] In some of the experiments tin protoporphyrin IX (SnPP), which is an inhibitor of the enzymatic activity of HO-1, was also used.
as §1
as §2, with “In both strains, there was a significant increase in the number of granulocytes (6.7-fold in C3H mice, 4-fold in C57BL6xFVB mice). There were no changes in the parameters such as hematocrit (HCT) and the number of erythrocytes (RBC) (FIG. 1, FIG. 2)” left out
For orientation: A flow cytometer gives signals particle by particle.

Data set [3] relates to C57BL6xFVB mice. The data set is described as follows: HSPC mobilization to blood, CoPP compared with G-CSF. It counts as in vivo. The note with it: CoPP 10 mg/kg (15 μmol/kg) vs rhG-CSF 250 μg/kg, i.p. daily for five days. The procedure: FIG. 8—HSPC numbers in the blood of C57BL6xFVB mice treated with G-CSF and CoPP.
Effects of CoPP and exogenous G-CSF were compared. Mice were iterated with CoPP at the dose of 10 mg/kg (15 μmol/kg). Recombinant human G-CSF (rhG-CSF, Amgen) was used at the dose of 250 μg/kg. Compounds were injected i.p. daily for five days. Administration od CoPP mobilized higher number of HSPC (hematopoietic stem/progenitor cells) than administration of exogenous G-CSF (FIG. 8).

Data set [4] is described as follows: singlet oxygen generation by flash photolysis. It counts as physicochemical. The note with it: laser light at 355 nm. The procedure:
FIG. 7—singlet oxygen generation quantum yield (ΦΔ) for CoPP and SnPP in reference to phenalenone, measured by flash photolysis.
Because of the fact that potential described side effects of administration of porphyrins are associated with photosensitization, causing the formation of toxic reactive oxygen species, it was evaluated if CoPP is a photosensitizer and thus may cause side effects. To this end, the ability to generate reactive oxygen species by CoPP was verified by flash photolysis. […] In contrast, in experiment with another porphyrin (SnPP) 89% of absorbed energy was used for generation of singlet oxygen (FIG. 7). It is therefore unlikely that CoPP will cause photosensitization, what often limits the clinical application of other compounds from the group of porphyrins.

A short description of data set [5]: solubility. In kind it is physicochemical. The note with it: alkaline aqueous solutions. The source says:
Cobalt porphyrins can be prepared by known methods. For example, cobalt protoporphyrin IX can be prepared using methods as described in: “Porphyrins and Metalloporphyrins” Ed. by K. M. Smith, Elsevier Scientific Pub. Co (1975) ISBN 0-444-41375-8 oraz Kenner, G. W., et al., Liebigs Ann. Chem. 1973, 1329-1338 and Burns, D. H., et al., J. Chem. Soc., Perkin Trans. 1, 1988, 3119. […] In the production process and the preparation of a medical agent cobalt protoporphyrin is proposed to be dissolved in an alkaline solution (eg. 0.2 M Na3PO4.12H20; ˜0.2 ml/ml final volume) and then with sterile water (˜0.7 ml/ml final volume), pH adjusted to 7.5-7.8 (eg. 0.3N HCl).

For data set [6], the system named is C3H and C57BL6xFVB mice. As to the kind of experiment: complete blood counts (hematology analyzer) in mice after CoPP. In kind it is in vivo. The note with it: for increase in number of granulocytes / increase in number of white blood cells (WBC) in blood compared to DMSO: three times at intervals of two days.
Text: The possibility of using CoPP for cell mobilization has been confirmed in experiments conducted on two different strains of mice: C3H (5 mice per group) and C57BL6xFVB (5-6 mice per group). The figures show:
FIG. 1—peripheral blood cell counts in C3H mice after administration of the test compounds (HCT—hematocrit, RBC—erythrocytes, WBC—leukocytes, LYM—lymphocytes, MON—monocytes, GRA—granulocytes, #—number of cells per mm^3, %—percentage of the population among all leukocytes; (ANOVA+Bonferroni test)
FIG. 2—peripheral blood cell counts in C57BL6xFVB strain after administration of CoPP; (test ANOVA+Bonferroni test)
as §1, §2

The mark [7] stands for this setting: both strains, 10 mg/kg i.p., three times.

For `C=Cc1c(C)c2cc3[nH]c(cc4nc(cc5nc(cc1[nH]2)C(C)=C5CCC(=O)[O-])C(CCC(=O)[O-])=C4C)c(C)c3C=C.[Co+2]` [CoPP, cobalt protoporphyrin IX], in data set [1], the “plasma level of chemokine IP-10 (CXCL-10)” value is given as “increase”, the “plasma level of chemokine MCP-1 (CCL2)” value is reported as “increase”, the “plasma level of granulocyte colony stimulating factor (G-CSF)” value is “increase” and the “plasma level of interleukin 6” value was “increase”. In data set [2] (HO-1 KO versus wild type mice, FIG. 4), the “mobilization of cells from bone marrow in HO-1 KO mice” value is recorded as “works in a similar manner as in wild type mice”. The “number of immature granulocytes (CD11b+/Ly6G low/Ly6C-/SCC mid phenotype)” value in data set [2] (peripheral blood, flow cytometer) is “increase”. Moreover, the “number of HSPC mobilized compared with exogenous G-CSF” value in data set [3] is listed as “higher number”. For the same compound, in data set [4], the “generation of singlet oxygen upon absorption of laser light” value was “does not generate singlet oxygen”. Also, in data set [5], the solubility result is reported as “soluble in alkaline aqueous solutions”. For the same compound, in data set [6] (C3H mice, 10 mg/kg i.p.), the “increase in number of granulocytes” value amounted to 6.7 fold and the “increase in number of white blood cells (WBC) in blood compared to DMSO” value came to 3 fold. Moreover, in data set [6] (C57BL6xFVB mice, 10 mg/kg i.p.), the “increase in number of granulocytes” value is given as 4 fold and the “increase in number of white blood cells (WBC) in blood compared to DMSO” value worked out at 2 fold. For the same compound, in data set [6] (setting [7]), the “hematocrit (HCT)” value was “no changes” and the “number of erythrocytes (RBC)” value is “no changes”.

Consider `C=Cc1c2[n-]c(c1C)/C=c1\[n-]/c(c(C)c1C=C)=C\c1[n-]c(c(CCC(=O)O)c1C)C=c1[n-]/c(c(C)c1CCC(=O)O)=C\2.[Sn+4]` [SnPP, tin protoporphyrin IX, reference compound], for which the “absorbed energy used for generation of singlet oxygen” value in data set [4] was found to be 89%. In data set [6] (C3H mice, FIG. 1,3,5), the “effect on the measured parameters (blood counts, granulocytes, cytokines)” value is listed as “did not affect the majority of the measured parameters”.
